Patent US4476299A, “Cyclic polyamino containing compounds having therapeutic effect and the preparation thereof” (priority 1981, dated 1984)
Entries after “also recorded” stand apart in the source; their conditions may differ. Read-outs that look alike come from different tables or passages of the source.

Experiments:
P-388 cells = assay: Antineoplastic action against implanted P-388 tumor, CDF1 mice, i.p.-i.p. (T/C %); type: in vivo; details: for T/C (%): Table 7, P388 (i.p.-i.p.)
Procedure: (§1) In this animal test, the antineoplastic action against the implanted tumor was examined, in lower animals in vivo, in repsect to the compounds according to the present invention, by using CDF1 mice.
(§2) To the peritoneal cavity of each group of mice consisting of six CDF1 mice per group, 10^6 /0.1 ml of P-388 cells or 10^5 /0.1 ml of L-1210 cells were implanted. […] While to the control groups of CDF1 mice, P-388 and L-1210 cells were implanted in the same manner and they were bred without administration of the compounds. […]

L-1210 cells = assay: Antineoplastic action against implanted L-1210 tumor, CDF1 mice, i.p.-i.p. (T/C %); type: in vivo; details: Table 7, L1210 (i.p.-i.p.)
Procedure: as §1, §2

B-16 melanoma = assay: Antineoplastic action against B-16 melanoma, i.p.-i.p. (T/C %); type: in vivo, mice; details: for T/C (%): Table 7, B16 (i.p.-i.p.); for effective against B-16 melanoma: in words
Source text: as §1
(§3) As the screening test for confirming antineoplasticity of certain compound, it is known in the art that there are two kinds of tests, one being "in vitro" test wherein carcinoma cells in propagation in a test tube are used, the other being "in vivo" test wherein lower animals implanted with carcinoma cells are used. In Japan. the "in vivo" test is usually carried out by using Ehrlich tumor, L-1210 cells, sarcoma 180 cells, Yoshida sarcoma or ascites-liver tumor as ascitic tumor and immobilized carcinoma mentioned above as fixed carcinoma. Recently, a new method for confirming the antineoplasticity has been developed, in which lymphocytic leukemia cells P-388 are used. It is known that P-388 has more strong sensitivity than L-1210. As fixed carcinoma, there may be mentioned, for example Lewis lung cancer B-16 melanoma, MM2, MOPC 104E, Colon 26, MH 134, C-1498 and the like.
(§4) The new compounds of the present invention were confirmed to be effective to the P-388 cells in the light of the screening test's results hereinbefore described.

MM2 = assay: Antineoplastic action against MM2 tumor, i.p.-i.p. (T/C %); type: in vivo, mice; details: for T/C (%) / 60< (mice, fraction of group): Table 7, MM2 (i.p.-i.p.); for effective against MM2: in words
Source text: as §1, §3, §4

[1] = Toxicity test: lethal dose in mice (Litchfield-Wilcoxon); design: species or system male 4-weeks CD-1 (ICR) mice; details: mouse, in vivo, 7 days, read-out: LD50 and 95% Confidence Limit
Procedure: With respect to the compounds of this invention, the lethal dose was determined as follows.
By using male 4-weeks CD-1 (ICR) mice consisting of 5 to 10 mice per group, the desired amount of each compound of this invention was suspended in 0.5% CMC solution and the resultant suspension was administered to each mouse intraperitoneally or intravenously. Observing the life or death as well as the general symptome during 7 days after the administration of the compounds, the value of LD50 for each compounds was estimated from the lethal population observed on the basis of the Litchfield-Wilcoxon method.

CD-1 (IRC) mice = assay: Neuropharmacological multidimensional observation (modified Arwin method and Smith method) in mice; type: in vivo, 4-weeks CD-1 (IRC) mice; details: i.p., 1 to 20 mg/kg, observed every 30 minutes for 180 minutes
Procedure: In this test, other pharmacological effects which may be obtained by these compounds were investigated.
Each compound of the invention was intraperitoneally administered to 4-weeks CD-1 (IRC) mice (Nippon Charles Liver K.K.) in the dose of 1 to 20 mg/kg with using mice groups consisting of three mice per group. […] The observation was carried out according to the modified Arwin method and Smith method, i.e., neuropharmacological multidimentional observation method.
Making a comparison between the symptom observed and the pattern of the pharmacological action due to the known medicines, it has been discovered that each compound of the invention has the following pharmacological effect.

[2] = Mus musculus, P388, ip, read-out: T/C %, (Treatment/Control %)
[3] = Mus musculus, ip, Table 6, P388, dose 10 mg/kg, i.p., read-out: T/C %, (Treatment/Control %)

Row | SMILES | response vs control in vivo at 0.05 mg/kg (P-388 cells; [2]) | response vs control in vivo at 0.5 mg/kg (P-388 cells; [2]) | response vs control in vivo at 2 mg/kg (P-388 cells; [2]) | response vs control in vivo at 4 mg/kg (P-388 cells; [2]) | T/C (%) (P-388 cells; 0.05 mg/kg) | T/C (%) (P-388 cells; 0.5 mg/kg) | T/C (%) (P-388 cells; 2 mg/kg) | T/C (%) (P-388 cells; 5 mg/kg) | T/C (%) (L-1210 cells; 0.5 mg/kg) | T/C (%) (L-1210 cells; 2 mg/kg) | T/C (%) (B-16 melanoma; 0.5 mg/kg) | T/C (%) (B-16 melanoma; 2 mg/kg) | T/C (%) (B-16 melanoma; 4 mg/kg) | effective against B-16 melanoma (B-16 melanoma) | T/C (%) (MM2; 0.5 mg/kg) | 60< (mice, fraction of group) (MM2; 2 mg/kg) | T/C (%) (MM2; 2 mg/kg) | LD50 at 168 h ([1]; intravenous) | LD50 at 168 h ([1]; ip, intraperitoneal) | Pharmacological effect estimated (CD-1 (IRC) mice) | other results
1 | CCCCCCOc1ccc2cc1Oc1ccc(cc1)CC1C(=O)N(C)C(C2)C(=O)NC(C)C(=O)NC(C)C(=O)N(C)C(Cc2ccc(OC)cc2)C(=O)NC(C)C(=O)N1C (centres unmarked) [Ex. 2, n-hexylether of the compound TPC-A] | 110% | 137% | 154% | 173% | 130.4% | 143.5% | 150.0% | 176.1% | 115.6% | 126.6% | 130.5% | 158.2% | 136.2% | effective against B-16 melanoma | 110.3% | 3/6 | 129.3% | – | – | – | T/C (%) (L-1210 cells; 4 mg/kg): 130.9%; 60< (mice, fraction of group) (MM2; 4 mg/kg): 1/7; T/C (%) (MM2; 4 mg/kg): 161.8%; effective against MM2 (MM2): effective
2 | COc1ccc(CC2C(=O)NC(C)C(=O)N(C)C3Cc4ccc(cc4)Oc4cc(ccc4OC)CC(C(=O)NC(C)C(=O)NC(C)C(=O)N2C)N(C)C3=O)cc1 (centres unmarked) [Methylether of TPC-A, methylether of the compound TPC-A] | – | 157% | 164% | 174% | – | 156.7% | 164.2% | – | 118.6% | 129.3% | – | 139.1% | 143.0% | – | – | – | 118.4% | 16.5 mg/kg | 10 mg/kg | emetic action; also recorded: anorexigenic action | response vs control in vivo at 0.01 mg/kg (P-388 cells; [2]): 130%; T/C (%) (P-388 cells; 0.01 mg/kg): 130.1%; T/C (%) (P-388 cells; 1 mg/kg): 159.9%; T/C (%) (P-388 cells; 4 mg/kg): 173.6%; T/C (%) (L-1210 cells; 0.01 mg/kg): 105.6%; T/C (%) (L-1210 cells; 1 mg/kg): 120.7%; T/C (%) (L-1210 cells; 5 mg/kg): 137.3%; T/C (%) (B-16 melanoma; 1 mg/kg): 135.3%; T/C (%) (B-16 melanoma; printed "(p. 25 mg/kg)"): 133.8%; T/C (%) (MM2; 0.2 mg/kg): 103.1%; T/C (%) (MM2; 1 mg/kg): 103.1%; T/C (%) (MM2; 5 mg/kg): 90.8%
3 | CCCCCC(=O)Oc1ccc2cc1Oc1ccc(cc1)CC1C(=O)N(C)C(C2)C(=O)NC(C)C(=O)NC(C)C(=O)N(C)C(Cc2ccc(OC)cc2)C(=O)NC(C)C(=O)N1C (centres unmarked) [Ex. 21, caproate of TPC-A] | 134% | 143% | 152% | – | – | – | 152.2% | – | 115.6% | 126.6% | 143.5% | 152.0% | – | – | 112.1% | 2/6 | 127.3% | – | – | – | response vs control in vivo at 10 mg/kg (P-388 cells; [2]): 197%; T/C (%) (P-388 cells; 0.01 mg/kg): 133.7%; T/C (%) (P-388 cells; 0.1 mg/kg): 135.9%; T/C (%) (L-1210 cells; 10 mg/kg): 67.3%; T/C (%) (B-16 melanoma; 5 mg/kg): 165.5%; T/C (%) (MM2; 10 mg/kg): 93.9%
4 | COc1ccc(CC2C(=O)NC(C)C(=O)N(C)C3Cc4ccc(cc4)Oc4cc(ccc4O)CC(C(=O)NC(C)C(=O)NC(C)C(=O)N2C)N(C)C3=O)cc1 (centres unmarked) [TPC-A] | – | – | – | – | – | – | – | – | – | – | – | – | – | – | – | – | – | 34 mg/kg | 16 mg/kg | emetic action; also recorded: anorexigenic action; also recorded: psychotropic action; also recorded: papaverine action | response vs control in vivo at 10 mg/kg (P-388 cells; [3]): 187%; antineoplastic effect / effective to P-388 cells (P-388 cells; in words): has antineoplastic effect by itself
5 | COc1ccc(CC2C(=O)NC(C)C(=O)N(C)C3Cc4ccc(cc4)Oc4cc(ccc4OC(C)=O)CC(C(=O)NC(C)C(=O)NC(C)C(=O)N2C)N(C)C3=O)cc1 (centres unmarked) [Ex. 22, Acetic acid ester of TPC-A] | – | – | – | – | 133.3% | 155.6% | 168.9% | 175.8% | 110.0% | 114.4% | 116.9% | 128.5% | 147.8% | effective against B-16 melanoma | 102.5% | – | 109.2% | 20 mg/kg | 18.4 mg/kg | emetic action; also recorded: psychotropic action; also recorded: antidiuretic action | response vs control in vivo at 0.05 mg/kg (P-388 cells; Mus musculus, ip, Table 6, P388, dose 0.05 mg/kg, i.p., read-out: T/C %, (Treatment/Control %)): 133%; response vs control in vivo at 0.5 mg/kg (P-388 cells; Mus musculus, ip, Table 6, P388, dose 0.5 mg/kg, i.p., read-out: T/C %, (Treatment/Control %)): 156%; response vs control in vivo at 2 mg/kg (P-388 cells; Mus musculus, ip, Table 6, P388, dose 2 mg/kg, i.p., read-out: T/C %, (Treatment/Control %)): 169%; response vs control in vivo at 10 mg/kg (P-388 cells; [3]): 195%; T/C (%) (P-388 cells; 10 mg/kg): 194.7%; T/C (%) (L-1210 cells; 0.05 mg/kg): 100.9%; T/C (%) (L-1210 cells; 5 mg/kg): 120.0%; T/C (%) (L-1210 cells; 10 mg/kg): 128.9%; T/C (%) (B-16 melanoma; 8 mg/kg): 141.1%; T/C (%) (MM2; 5 mg/kg): 117.8%; T/C (%) (MM2; 10 mg/kg): 120.9%; effective against MM2 (MM2): effective
